Experimental data published in patent publication US9034874B2, “Carbamate/urea derivatives” (NOVARTIS AG, priority 2012, dated 2015).

test system: wakefulness in rats; test: Effects on wakefulness (EEG/EMG recordings); format: in vivo, rat; conditions: oral, first 4 hours after administration
Experimental: Animals: Male Sprague-Dawly rats (280-320 g) were housed individually under an ambient temperature of 22±0.5° C. with a relative humidity of 60±2% and an automatically controlled 12-h light/12-h dark cycle (light on at 07:00, illumination intensity 100 lux). The animals had free access to food and water.
EEG recording set up, Polygraphic Recordings and Vigilance State Analysis: Under pentobarbital anesthesia (50 mg/kg, i.p.), rats were chronically implanted with EEG and electromyogram (EMG) electrodes for polysomnographic recordings (Huang et al, J Neurosci, 23, 5975-5983, 2003). Two stainless steel screws (1 mm in diameter) EEG electrodes (the first screw: anteroposterior (AP), +2 mm; left-right (LR), −2 mm; and the second: AP, −2 mm; LR, −2 mm, AP from bregma, LR from lambda) and a reference electrode (opposite to EEG screw side, AP, +3 mm; LR, 3 mm) were surgically implanted and 3 stainless steel screws for anchorage to the skull. Two insulated stainless steel, Teflon-coated wires were bilaterally placed into both trapezius muscles and served as EMG electrodes for rats. All electrodes were attached to a micro connector and fixed to the skull with dental cement. […]
For the study of spontaneous sleep-wakefulness cycles, each animal was recorded for 24 h beginning at 19:00 P.M., the offset of the light period. The animals then entered the pharmacological phase of the study, in which sleep-wakefulness parameters were recorded for 72 h. […]
Cortical EEG and EMG signals were amplified, filtered (EEG, 0.5-30 Hz; EMG, 20-200 Hz), digitized at a sampling rate of 128 Hz, and recorded by using SLEEPSIGN (Kissei Comtec, Nagano, Japan). When complete, polygraphic recordings were automatically scored offline by 4-sec epochs as wake, REM, and NREM sleep by SleepSign according to standard criteria (Huang et al, Nat Neurosci, 8, 858-859, 2005). […]
Time-course changes in the amounts of sleep-wake, sleep/wake stage transition number, as well as number and duration of sleep/wake bouts in light/dark phases, were analyzed by the paired t test, with each animal serving as its own control. […]

Compound | % increase in wakefulness at 10 mg [%]
CC(C)N1CCN(C(=O)OC2CCN(c3ccc(=O)n(C)n3)CC2)CC1 [Example 1.2, 1-(1-methyl-6-oxo-1,6-dihydropyridazin-3-yl)piperidin-4-yl 4-isopropylpiperazine-1-carboxylate] | 48.8
O=C(OC1CCN(c2ccc(=O)[nH]n2)CC1)N1CCN(C2CCC2)CC1 [Example 1.1, 1-(6-oxo-1,6-dihydropyridazin-3-yl)piperidin-4-yl 4-cyclobutylpiperazine-1-carboxylate] | 42.1
CC(C)N1CCN(C(=O)OC2CCN(c3ccc(=O)[nH]n3)CC2)CC1 [Example 1.3, 1-(6-oxo-1,6-dihydropyridazin-3-yl)piperidin-4-yl 4-isopropylpiperazine-1-carboxylate] | 19.1
